59 compounds from patent publication US20250263404A1, “AMINOPYRIDINES AS ACTIVATORS OF PI3 KINASE” (UCL Business Ltd, priority 2021, published 2025) can be followed below.

Bounds are passed on as bounds.

The experiment concerns the target PI3Kα (Homo sapiens, UniProt P42336). Briefly: pAKT S473 ELISA in A549 cells (PI3Kα activation). It is filed as cell-based. Further details: endogenous in cells; host or cells: A549. Conditions: for EC50: A549 cells, 15 min treatment, pAKT S473 ELISA, normalised to Emax of 1 μM insulin, read-out: Av EC50; for Emax at 10 µM: A549, 0.25 h, read-out: <50% response at 10 μM. The protocol: EC50 values were determined by quantifying phosphorylation on S473 residues of Akt in A549 human adenocarcinoma cells by ELISA (enzyme linked immunoadsorbent assay, R&D Systems, DYC887BE). A549 cells were seeded into 96-well plates (50,000 cells/well) in DMEM supplemented with 10% foetal bovine serum and 1% penicillin-streptomyocin. Following 24 h in culture cells were starved for 24 h in serum-free DMEM before 15 minute treatment with a concentration response curve of compounds. Experimental compounds were diluted in DMSO into […] 1:3 concentration response curves in polypropylene V-bottom plates (SLS MIC9050). Concentration response curves were diluted to a 3× stock in serum-free DMEM. Standard 8-point concentration response curves were performed at 50, 16.7, 5.6, 1.9, 0.6, 0.2, 0.07, 0.02 μM and serum-free DMEM containing 0.5% DMSO was used as a negative control. […] A549 cells were seeded at 50,000 cells per well in 96-well plates in DMEM (10% FBS+1% P/S). The next day cells were washed once with PBS before addition of serum-free DMEM for 24 h. On the day of treatment cells, were incubated in fresh serum-free DMEM prior to treatment. Compounds solubilised to 10 mM in DMSO were diluted 1:3 in an 8-point concentration response curve in DMSO. Concentration response curves were diluted in serum-free DMEM by transfer into intermediate plates using a BRAVO liquid handler (Agilent). Intermediate plates were then used to treat cell plates using the BRAVO liquid handler. Compound concentration response curves had atop concentration of 50 μM and a final well concentration of 0.5% DMSO. Cell plates were treated for 15 min at 37° C., 5% CO2 before being washed with ice-cold PBS and lysed in lysis buffer 6 (R&D Systems #895561) and freezing at −80° C. Levels of pAKT-S473 were determined using the phospho-AKT (S473) pan-specific Duoset IC ELISA (R&D Systems #DYC887BE) in 96-well white high-binding plates (Corning #3922) according to manufacturer's instructions. Endpoint luminescence was measured using a Sense (Hidex) platereader. […] Data were transformed and EC50 data were determined by variable slope (4 parameters) non-linear regression using Prism 7 (Graphpad).
Background: An ELISA detects its analyte on a solid surface through an enzyme-linked reagent.

Sequence of PI3Kα (P42336 whole entry): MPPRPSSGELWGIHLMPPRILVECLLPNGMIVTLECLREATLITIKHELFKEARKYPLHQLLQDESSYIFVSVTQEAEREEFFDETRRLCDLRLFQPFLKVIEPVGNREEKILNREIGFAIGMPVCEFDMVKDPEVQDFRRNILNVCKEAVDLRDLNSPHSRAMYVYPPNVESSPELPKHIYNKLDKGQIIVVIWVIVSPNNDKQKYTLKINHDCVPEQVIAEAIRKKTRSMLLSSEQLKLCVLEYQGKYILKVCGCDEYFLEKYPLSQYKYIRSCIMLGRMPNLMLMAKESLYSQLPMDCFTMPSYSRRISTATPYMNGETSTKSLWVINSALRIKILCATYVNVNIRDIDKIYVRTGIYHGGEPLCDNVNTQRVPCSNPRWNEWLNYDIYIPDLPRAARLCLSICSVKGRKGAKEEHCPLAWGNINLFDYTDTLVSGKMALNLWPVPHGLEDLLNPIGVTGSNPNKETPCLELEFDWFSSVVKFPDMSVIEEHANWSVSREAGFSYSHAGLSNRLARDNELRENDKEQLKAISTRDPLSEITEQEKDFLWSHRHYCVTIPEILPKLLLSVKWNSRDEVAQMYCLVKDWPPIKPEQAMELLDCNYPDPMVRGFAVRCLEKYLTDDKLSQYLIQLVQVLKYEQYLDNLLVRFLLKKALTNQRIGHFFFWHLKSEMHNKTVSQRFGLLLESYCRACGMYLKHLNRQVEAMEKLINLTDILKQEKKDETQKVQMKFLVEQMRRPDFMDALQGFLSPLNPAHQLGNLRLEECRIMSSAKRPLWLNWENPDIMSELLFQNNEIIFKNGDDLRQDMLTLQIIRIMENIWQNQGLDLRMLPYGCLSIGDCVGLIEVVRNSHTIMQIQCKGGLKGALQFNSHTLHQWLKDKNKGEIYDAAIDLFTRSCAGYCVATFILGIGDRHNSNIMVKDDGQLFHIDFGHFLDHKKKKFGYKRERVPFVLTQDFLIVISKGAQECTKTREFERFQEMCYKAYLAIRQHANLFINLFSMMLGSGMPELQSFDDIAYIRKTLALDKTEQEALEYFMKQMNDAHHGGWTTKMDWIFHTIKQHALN
Sequence of PI3Kα (P27986 whole entry partner): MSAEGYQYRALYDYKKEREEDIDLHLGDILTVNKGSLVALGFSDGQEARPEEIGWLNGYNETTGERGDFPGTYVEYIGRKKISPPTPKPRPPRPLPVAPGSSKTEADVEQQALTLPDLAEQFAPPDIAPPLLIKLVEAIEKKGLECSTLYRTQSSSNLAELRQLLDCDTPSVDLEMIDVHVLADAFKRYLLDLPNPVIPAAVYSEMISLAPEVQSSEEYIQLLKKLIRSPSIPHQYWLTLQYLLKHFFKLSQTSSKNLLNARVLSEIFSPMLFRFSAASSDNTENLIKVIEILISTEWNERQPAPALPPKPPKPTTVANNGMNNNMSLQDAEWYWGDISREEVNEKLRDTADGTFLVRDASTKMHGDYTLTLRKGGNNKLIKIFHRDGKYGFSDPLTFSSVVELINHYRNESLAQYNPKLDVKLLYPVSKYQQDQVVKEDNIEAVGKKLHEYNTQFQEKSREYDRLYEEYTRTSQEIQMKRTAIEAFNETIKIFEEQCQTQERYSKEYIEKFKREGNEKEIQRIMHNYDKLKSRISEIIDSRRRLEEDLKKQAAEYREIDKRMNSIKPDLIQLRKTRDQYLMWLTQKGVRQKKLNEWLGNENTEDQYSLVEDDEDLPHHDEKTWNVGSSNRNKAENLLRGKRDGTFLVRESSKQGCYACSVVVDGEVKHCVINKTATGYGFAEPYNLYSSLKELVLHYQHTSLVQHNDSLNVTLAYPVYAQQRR

As to `COc1cc(Nc2cc(Nc3ccccc3)ccn2)cc(OC)c1OC` [1 (1902)], the EC50 was at least 50000 nM.
The same measure, in the same setting: with `COc1cc(Nc2cc(Nc3ccn(C)n3)ccn2)cc(OC)c1OC` [2 (1903)] the figure was at least 50000 nM.
On the same count and under the same terms, with `COc1cc(N2CCN(C)CC2)ccc1Nc1cc(Nc2ccn(C)n2)ccn1` [3 (1904)] the figure was 9710 nM.
As for `COc1cc(Nc2cc(Nc3cnn(C)c3)ccn2)cc(OC)c1OC` [4 (1905)], the Emax at 10 µM is under 50% and the EC50 is 2080 nM.
For `COc1cc(Nc2cc(Nc3ccc4c(c3)CCN4C(C)=O)ccn2)cc(OC)c1OC` [5 (1906)], the Emax at 10 µM is under 50% and the EC50 came to 440 nM.
The like results for `COc1cc(Nc2cc(Nc3ccc4c(c3)N(C(C)=O)CC4)ccn2)cc(OC)c1OC` [6 (1907)] were, in that order, under 50% and 840 nM.
Regarding `COc1cc(N2CCOCC2)ccc1Nc1cc(Nc2cccc3c2N(C(C)=O)CC3)ccn1` [7 (1912)], the Emax at 10 µM was under 50% and the EC50 came out at 540 nM.
The like results for `CNC(=O)c1ccccc1Nc1ccnc(Nc2ccc(N3CCN(C)CC3)cc2OC)c1` [8 (1934)] were, in that order, under 50% and over 50000 nM.
Regarding `CNC(=O)c1ccccc1Nc1ccnc(Nc2ccc(N3CCOCC3)cc2OC)c1` [9 (1935)], the Emax at 10 µM is under 50% and the EC50 came out at 1580 nM.
As to `COc1cc(N2CCN(C)CC2)ccc1Nc1cc(Nc2cccc3c2N(C(C)=O)CC3)cc(C)n1` [10 (1936)], the Emax at 10 µM is under 50% and the EC50 was 5360 nM.
For `CC(=O)N1CCc2cccc(Nc3ccnc(Nc4ccc(N5CCN(C)CC5)cc4)c3)c21` [11 (1937)], the EC50 was determined as 2640 nM.
The same measure, in the same setting: with `CCN1CCN(c2ccc(Nc3cc(Nc4cccc5c4N(C(C)=O)CC5)ccn3)cc2)CC1` [12 (1938)] the figure was 1530 nM; with `COc1cc(N2CCCCC2)ccc1Nc1cc(Nc2cccc3c2N(C(C)=O)CC3)ccn1` [13 (1941)], 4380 nM; with `COc1cc(N2CCN(C(C)C)CC2)ccc1Nc1cc(Nc2cccc3c2N(C(C)=O)CC3)ccn1` [14 (1942)], 2270 nM.
For `COc1cc(N2CCN(C)CC2)ccc1Nc1cc(Nc2cccc3c2N(C(=O)C(C)C)CC3)ccn1` [15 (1943)], the EC50 amounted to 2390 nM.
For `COc1cc(N2CCN(C)CC2)ccc1Nc1nccc(Nc2cccc3c2N(C(C)=O)CC3)c1C` [16 (1944)], the Emax at 10 µM was under 50% and the 50% effective concentration (EC50) was found to be 5530 nM.
Regarding `COCC(=O)N1CCc2cccc(Nc3ccnc(Nc4ccc(N5CCN(C)CC5)cc4OC)c3)c21` [17 (1950)], the concentration for a half-maximal effect (EC50) amounted to 4780 nM.
As to `COc1cc(N2CCN(C)CC2)ccc1Nc1nccc(Nc2cccc3c2N(C(C)=O)CC3)c1F` [18 (1951)], the EC50 was determined as 3080 nM.
The same measure, in the same setting: the value for `COc1cc(N2CCN(C)CC2)ccc1Nc1cc(Nc2cc(C)cc3c2N(C(C)=O)CC3)ccn1` [19 (1958)] was 1010 nM; that for `CCC(=O)N1CCc2cccc(Nc3ccnc(Nc4ccc(N5CCN(C)CC5)cc4OC)c3)c21` [20 (1959)] was 2280 nM; that for `CCOCC(=O)N1CCc2cccc(Nc3ccnc(Nc4ccc(N5CCN(C)CC5)cc4OC)c3)c21` [21 (1961)] was 6680 nM.
The same measure, in the same setting: with `CC(=O)N1CCc2cccc(Nc3ccnc(Nc4cccc(N5CCN(C)CC5)c4)c3)c21` [22 (1968)] the figure was 7850 nM; with `COc1cc(N2CCN(C)CC2)ccc1Nc1cc(Nc2ccccc2)ccn1` [23 (1971)], 4530 nM.
`COc1cc(N2CCN(C)CC2)ccc1Nc1cc(Nc2ccc3c(c2)CCN3C(C)=O)ccn1` [24 (1989)]: the EC50 is 1250 nM.
The same measure, in the same setting: the value for `CC(=O)N1CCc2cccc(Nc3ccnc(Nc4ccc(N5CCN(C)CC5)cc4C(F)(F)F)c3)c21` [25 (1992)] was over 50000 nM; that for `COc1cc(N2CCN(Cc3ccc(C)cc3)CC2)ccc1Nc1cc(Nc2cccc3c2N(C(C)=O)CC3)ccn1` [26 (1993)] was over 50000 nM; that for `COCCN1CCN(c2ccc(Nc3cc(Nc4cccc5c4N(C(C)=O)CC5)ccn3)c(OC)c2)CC1` [27 (1994)] was 1300 nM.
For `COc1cc(N2CCN(C)CC2)ccc1Nc1cc(Nc2cc(-c3ccccc3)nn2C)ccn1` [28 (1995)], the Emax at 10 µM was under 50% and the EC50 came out at 1410 nM.
`COc1cc(N2CCN(C)CC2)ccc1Nc1cc(Nc2cc(C(C)(C)C)nn2C)ccn1` [29 (1998)]: the concentration for a half-maximal effect (EC50) was 890 nM.
Turning to `COc1cc(N2CCN(C)CC2)ccc1Nc1cc(Nc2cc(C(C)C)nn2C)ccn1` [30 (2000)], the EC50 came to 4890 nM.
On the same count and under the same terms, with `CCOc1cc(N2CCN(C)CC2)ccc1Nc1cc(Nc2cccc3c2N(C(C)=O)CC3)ccn1` [31 (2007)] the figure was 1550 nM; with `CC(=O)N1CCc2cccc(Nc3ccnc(Nc4ccc(N5CCN(C)CC5)cc4OC(C)C)c3)c21` [32 (2008)], 1460 nM.
The same measure, in the same setting: the value for `COCCOc1cc(N2CCN(C)CC2)ccc1Nc1cc(Nc2cccc3c2N(C(C)=O)CC3)ccn1` [33 (2009)] was 5230 nM; that for `CC(=O)N1CCc2cccc(Nc3ccnc(Nc4cccc(Oc5ccccc5)c4)c3)c21` [34 (2010)] was over 50000 nM.
With `CC(=O)N1CCc2cccc(Nc3ccnc(Nc4ccc(C(N)=O)cc4)c3)c21` [35 (2011)], the EC50 worked out at 4970 nM.
On the same count and under the same terms, with `CC(=O)N1CCc2cccc(Nc3ccnc(Nc4ccc(Oc5ccccc5)cc4)c3)c21` [36 (2013)] the figure was 8810 nM.
Same read-out and setting: with `CC(=O)N1CCc2cccc(Nc3ccnc(Nc4ccc(OCc5ccccc5)cc4)c3)c21` [37 (2014)] the figure was over 50000 nM; with `CC(=O)N1CCc2cccc(Nc3ccnc(Nc4ccc(N5CCOCC5)cc4)c3)c21` [38 (2015)], 1320 nM; with `CC(=O)N1CCc2cccc(Nc3ccnc(Nc4ccccc4)c3)c21` [39 (2016)], over 50000 nM.
On to `CC(=O)N1CCc2cccc(Nc3ccnc(Nc4ccc(C(C)(C)C)cc4)c3)c21` [40 (2017)], for which the Emax at 10 µM is under 50% and the EC50 was 7400 nM.
The like results for `CC(=O)N1CCc2cccc(Nc3ccnc(Nc4ccc(C#N)cc4)c3)c21` [41 (2018)] were, in that order, under 50% and 1740 nM.
Turning to `CNC(=O)c1ccc(Nc2cc(Nc3cccc4c3N(C(C)=O)CC4)ccn2)cc1` [42 (2019)], the EC50 is 1370 nM.
Take `CC(=O)N1CCc2cccc(Nc3ccnc(Nc4ccc5ccccc5n4)c3)c21` [43 (2020)]: the EC50 was over 50000 nM.
Same read-out and setting: with `CC(=O)N1CCc2cccc(Nc3ccnc(Nc4cc5ccccc5cn4)c3)c21` [44 (2021)] the figure was over 50000 nM; with `CC(=O)N1CCc2cccc(Nc3ccnc(Nc4cc(-c5ccccc5)nn4C)c3)c21` [46 (2023)], over 50000 nM.
Regarding `CNC(=O)c1cccc(Nc2cc(Nc3cccc4c3N(C(C)=O)CC4)ccn2)c1` [47 (2026)], the Emax at 10 µM was under 50% and the EC50 was found to be 1760 nM.
With `CC(=O)N1CCc2cccc(Nc3ccnc(Nc4nn(C)c5ccccc45)c3)c21` [48 (2027)], the Emax at 10 µM is under 50% and the EC50 amounted to 1480 nM.
On the same counts, the results for `CC(=O)N1CCc2cccc(Nc3ccnc(Nc4ccc5ncccc5c4)c3)c21` [49 (2028)] are under 50% and 440 nM.
As to `COc1cc(N2CCN(C)CC2)ccc1Nc1cc(Nc2ccnc3ccccc23)ccn1` [50 (2029)], the EC50 came to 1360 nM.
The same measure, in the same setting: the value for `COc1cc(N2CCN(C)CC2)ccc1Nc1cc(Nc2ccc3scnc3c2)ccn1` [51 (2031)] was 310 nM.
In the case of `COc1cc(N2CCN(C)CC2)ccc1Nc1cc(Nc2ccc(S(C)(=O)=O)cc2)ccn1` [52 (2038)], the EC50 is 3810 nM.
Still for that read-out and setting: with `COc1cc(N2CCN(C)CC2)ccc1Nc1cc(Nc2ccncn2)ccn1` [53 (2039)] the figure was 7850 nM.
As to `COc1cc(N2CCN(C)CC2)ccc1Nc1cc(Nc2cccc(S(C)(=O)=O)c2)ccn1` [54 (2043)], the EC50 is 1220 nM.
On to `COc1cc(N2CCN(C)CC2)ccc1Nc1cc(Nc2ccncc2)ccn1` [55 (2045)], for which the EC50 is over 6120 nM.
Still for that read-out and setting: the value for `COc1ccc(Nc2ccnc(Nc3ccc(N4CCN(C)CC4)cc3OC)c2)cc1NC(C)=O` [56 (2046)] was 1280 nM; that for `COc1cc(N2CCN(C)CC2)ccc1Nc1cc(Nc2ccc3ncccc3c2)ccn1` [57 (2047)] was over 50000 nM; that for `CNC(=O)c1cccc(Nc2ccnc(Nc3ccc(N4CCN(C)CC4)cc3OC)c2)c1` [58 (2049)] was 1350 nM.
On to `COc1cc(N2CCN(C)CC2)ccc1Nc1cc(Nc2cccc(-c3ccccn3)c2)ccn1` [59 (2052)], for which the Emax at 10 µM was under 50% and the concentration giving a half-maximal response (EC50) was determined as 550 nM.
On to `COc1cc(N2CCN(C)CC2)ccc1Nc1cc(Nc2cccc(NS(C)(=O)=O)c2)ccn1` [60 (2054)], for which the EC50 came to 2510 nM.

A word on the EC50: it is the concentration at which the effect is half-maximal.
